# Patent US20220280593A1, “METHODS FOR […] CORONARY ARTERY BYPASS GRAFT PROCEDURE” (Stealth BioTherapeutics Inc., priority 2009, published 2022)
# Entries after “also recorded” stand apart in the source; their conditions may differ. Non-standard residues stand in square brackets, D forms with d. No end group written: not given here.
# Key:
# [1] = tested on: several mammalian cell types; conditions: energy-independent manner; Zhao et al., 2003; cited from earlier work
# mu-opioid receptor = conditions: cited from earlier work
# mitochondria [2] = conditions: cited from earlier work
# [3] = tested on: New Zealand white rabbits; assay: Rabbit model of acute myocardial ischemia and reperfusion (30 min ischemia, 180 min reperfusion), infarct size by histomorphometry; type: in vivo
# Experimental: New Zealand white rabbits were used in this study. The rabbits were males and >10 weeks in age. Environmental controls in the animal rooms were set to maintain temperatures of 61° to 72° F. and relative humidity between 30% and 70%. Room temperature and humidity were recorded hourly, and monitored daily. There were approximately 10-15 air exchanges per hour in the animal rooms. Photoperiod was 12-hr light/12-hr dark (via fluorescent lighting) with exceptions as necessary to accommodate dosing and data collection. Routine daily observations were performed. Harlan Teklad, Certified Diet (2030C), rabbit diet was provided approximately 180 grams per day from arrival to the facility. In addition, fresh fruits and vegetables were given to the rabbit 3 times a week.
# The peptide D-Arg-2′6′-Dmt-Lys-Phe-NH2 (sterile lyophilized powder) was used as the test article. Dosing solutions were formulated at no more than 1 mg/ml, and were delivered via continuous infusion (IV) at a constant rate (e.g., 50 μL/kg/min). Normal saline (0.9% NaCl) was used as a control.
# The test/vehicle articles were given intravenously, under general anesthesia, in order to mimic the expected route of administration in the clinical setting of AMI and PTCA. Intravenous infusion was administered via a peripheral vein using a Kd Scientific infusion pump (Holliston, MA 01746) at a constant volume (e.g., 50 μL/kg/min).
# The study followed a predetermined placebo and sham controlled design. In short, 10-20 healthy, acclimatized, male rabbits were assigned to one of three study arms (approximately 2-10 animals per group). Arm A (n=10, CTRL/PLAC) includes animals treated with vehicle (vehicle; VEH, IV); Arm B (n=10, treated) includes animals treated with peptide; Arm C (n=2, SHAM) includes sham-operated time-controls treated with vehicle (vehicle; VEH, IV) or peptide.
# In all cases, treatments were started approximately 10 min after the onset of a 30 min ischemic insult (coronary occlusion) and continued for up to 3 h following reperfusion. In all cases, cardiovascular function was monitored both prior to and during ischemia, as well as for up to 180 min (3 h) post-reperfusion. The experiments were terminated 3 h post-reperfusion (end of study); irreversible myocardial injury (infarct size by histomorphometery) at this time-point was evaluated, and was the primary-end-point of the study.
# Following hemodynamic stabilization and baseline measurements, the animals were subjected to an acute 30 min ischemic insult by tightening of the LAD/LCX coronary artery snares. […]
# Histopathology/Histomorphometery. At the completion of the protocol, irreversible myocardial injury (i.e., infarction) resulting from the I/R insult was evaluated. […]
# [4] = Stability of the drug substance; type: physicochemical
# Experimental: Study Drug. D-Arg-2′6′-Dmt-Lys-Phe-NH2 is a small peptide (CAS No. 736992-21-5). Its molecular weight is 639.8 (free base). […] The drug substance will be provided as a lyophilized powder in sterile glass vials. Each vial will be reconstituted with 10 mL of sterile D5W by the unblinded pharmacist at each site.
# mitochondria [5] = conditions: cited from earlier work; remark: listed apart in the source
# wild type mice = conditions: treatment at 0, 6, 24 and 48 hours after 30 min occlusion; U.S. Patent Publication No. 20070129306; cited from earlier work
# animal model of ARI = conditions: cited from earlier work
# [6] = IV continuous infusion from 10 min into 30 min ischemia through 180 min reperfusion, n = 10, p < 0.05 vs placebo
# [7] = 45 min ischemia and 24 h reperfusion
substance,measurement,setting,value
"2′,6′-Dmt-D-Arg-Phe-Lys-NH2",penetration of the plasma membrane,[1],readily penetrates
"D-Arg-2′,6′-Dmt-Lys-Phe-NH2",mu-opioid receptor agonist activity,mu-opioid receptor,does not have mu-opioid receptor agonist activity
same,adenosine triphosphate (ATP) levels,mitochondria [2],maintaining
same,electron transfer within the mitochondrial electron transport chain,mitochondria [2],facilitating
same,loss of mitochondrial membrane potential,mitochondria [2],preventing
same,mitochondrial respiration (oxygen consumption),mitochondria [2],maintaining
same,mitochondrial swelling (mPTP opening),mitochondria [2],preventing
same,reactive oxygen species (ROS),mitochondria [2],scavenging
same,release of cytochrome c,mitochondria [2],preventing
same,myocardial infarct size compared to the control,"[3]; 30 min ischemia, infusion continued 180 min after reperfusion, listed as peptide",decreased infarct size; also recorded: able to reduce myocardial infarct size
same,Myocardial Area IA/AR (infarcted area / area at risk),[3]; [6],24.7 ± 4.7%
same,Myocardial Area IA/LV (infarcted area / left ventricular area),[3]; [6],16.2 ± 3.4%
same,myocardial salvage,"[3]; treatment for less than 3 hours after reperfusion, i.e., 30 min, data not shown",comparable myocardial salvage
same,resistance to oxidation,[4],resistant to oxidation
same,temperature up to which stable,[4],up to 40 °C
same,stability to light,[4]; powder or liquid form,stable to light
same,concentration in the mitochondrial pellet relative to extracellular fluid,mitochondria [5],approximately 5000 fold
same,intracellular concentration relative to extracellular fluid,mitochondria [5],six
same,hemispheric swelling compared to saline controls,wild type mice,significant reduction
same,infarct volume compared to saline controls,wild type mice,significant reduction
same,histopathological score,animal model of ARI; [7],significantly improved
same,rate of ATP production after reperfusion,animal model of ARI; [7],significantly increased
same,incidence of ARI caused by ischemia-reperfusion,animal model of ARI; U.S. Patent Publication No. 20090221514,effective in reducing
same,"interstitial fibrosis, tubular apoptosis, macrophage infiltration and tubular proliferation",animal model of ARI; animal model of ARI,effective in reducing
F[dR]FK-NH2,mu-opioid receptor agonist activity,mu-opioid receptor,does not have mu-opioid receptor agonist activity
Tyr-D-Arg-Phe-Lys-NH2,mu-opioid receptor agonist activity,mu-opioid receptor,has mu-opioid receptor agonist activity
